# Measured values taken from patent publication US7098219B2, “Inhibitors of cellular efflux pumps of microbes” (Wockhart Limited, priority 2000, dated 2006).
# System: Staphylococcus aureus 1199 B NorA+
# Format: cell-based
# Conditions: combination with ciprofloxacin, broth microdilution checkerboard, 35° C. 20 hours; FIC index ≦0.5 synergistic, 0.5–2.0 additive, >2.0 antagonistic
# Text: Testing method for inhibition of the efflux pump of Staphylococcus aureus 1199B NorA^+
# […]. Victor Lorian, Md., Fourth edition 1996, pp 333–338).
# In short, the assay involves broth microdilution method performed as recommended by the National Committee for Clinical Laboratory Standards (NCCLS) 1997 (Methods for Dilution of Antimicrobial Susceptibility Tests for Bacteria that Grow Aerobically, Fourth edition; Approved Standard, NCCLS document M7-A4, vol. 17, No. 2). The test organism used for the assay is Staphylococcus aureus 1199 B NorA^+.
# […]. Stock solutions of the efflux pump inhibitors tested are prepared in dimethyl sulfoxide (DMSO) at a final concentration of 5 mg/ml. Stock solutions are further diluted in Mueller Hinton Broth as per the need of the assay. Ciprofloxacin is dissolved in water.
# The checkerboard assay is performed in microtiter plates. […] The efflux pump inhibitor is diluted in the Y-axis, each row containing an equal concentration of efflux pump inhibitor. The result of these manipulations is that each well of the microtiter plate contains a unique combination of concentrations of the two agents. Bacterial inoculum is added at 5×10^5 CFU/ml. Microtiter plates are incubated at 35° C. for 20 hours. Reading is done by visibly noting turbidity and confirmed using a microtiter plate reader (Molecular Devices). The FIC index is calculated as
# (A) is the concentration of the experimental efflux pump inhibitor in the well that is the lowest inhibitory concentration in the Y-axis. (MICA) is the MIC of Staphylococcus aureus to experimental efflux pump inhibitor alone. FICA is the fractional inhibitory concentration of an experimental efflux pump inhibitor. […] (Antimicrobial Combination In Antibiotics in Laboratory Medicine, Ed. Victor Lorian, Md., Fourth edition 1996, pp 333–338).
row,SMILES,FIC INDEX
1,"COc1c(N2CC(C)C(O)C(C)C2)c(F)cc2c(=O)c(C(=O)O)cn(C3CC3)c12 (stereo not shown) [Example 22 (NorA), 1-Cyclopropyl-6-fluoro-8-methoxy-1,4-dihydro-7-(4′-hydroxy-3′,5′-dimethylpiperidin-1-yl)-4-oxo-quinoline-3-carboxylic acid]",0.370
2,"COc1c(N2CCNC(C)C2)c(F)cc2c(=O)c(C(=O)O)cn(C3CC3)c12 (stereo not shown) [Example 23 (NorA), 1-Cyclopropyl-6-fluoro-8-methoxy-1,4-dihydro-7-(3′-methylpiperazin-1-yl)-4-oxo-quinoline-3-carboxylic acid]",0.314
3,"COc1c(N2CC(C)C(N)C(C)C2)c(F)c(N)c2c(=O)c(C(=O)O)cn(C3CC3)c12 (stereo not drawn) [Example 24 (NorA), 5-Amino-1-cyclopropyl-6-fluoro-8-methoxy-1,4-dihydro-7-(cis-4′-amino-3′,5′-dimethylpiperidin-1-yl)-4-oxo-quinoline-3-carboxylic acid]",0.314
4,"CC1CCC(N)N1c1c(F)c(N)c2c(=O)c(C(=O)O)cn(C3CC3)c2c1F (stereo not shown) [Example 26 (NorA), 5-Amino-1-cyclopropyl-6,8-difluoro-1,4-dihydro-7-(5′-amino-2′-methyl-pyrrolidin-1-yl)-4-oxo-quinoline-3-carboxylic acid]",0.628
5,"C[C@H](N)C(=O)N[C@@H](C)C(=O)NC1CCN(c2c(F)c(N)c3c(=O)c(C(=O)O)cn(C4CC4)c3c2F)C1 (stereo partly drawn) [Example 27 (NorA), 5-Amino-1-cyclopropyl-6,8-difluoro-1,4-dihydro-7-{3′-(L-Ala-L-Alaamino)pyrrolidin-1-yl}-4-oxo-quinoline-3-carboxylic acid]",0.128
6,"CCCCN(CCCC)C1CCN(c2c(F)c(N)c3c(=O)c(C(=O)O)cn(C4CC4)c3c2F)CC1 [Example 28 (NorA), 5-Amino-1-cyclopropyl-6,8-difluoro-1,4-dihydro-7-{4′-(N-di-n-butylamino)piperidin-1-yl)-4-oxo-quinoline-3-carboxylic acid]",0.314
7,"C[C@H](NC(=O)OC(C)(C)C)C(=O)N[C@@H](C)C(=O)NC1CCN(c2c(F)c(N)c3c(=O)c(C(=O)O)cn(C4CC4)c3c2F)CC1 [Example 29 (NorA), 5-Amino-1-cyclopropyl-6,8-difluoro-1,4-dihydro-7-{4′-(-t-butoxycarbonylamino-L-Ala-L-Ala)aminopiperidin-1-yl}-4-oxo-quinoline-3-carboxylic acid]",0.320
8,"CCC(=O)OC1CCN(c2c(F)c(N)c3c(=O)c(C(=O)O)cn(C4CC4)c3c2F)CC1 [Example 30 (NorA), 5-Amino-1-cyclopropyl-6,8-difluoro-1,4-dihydro-7-(4′-propionoxypiperidin-1-yl)-4-oxo-quinoline-3-carboxylic acid]",0.314
9,"CC1(C)CN(c2c(F)c(N)c3c(=O)c(C(=O)O)cn(C4CC4)c3c2F)CCC1O (stereo not shown) [Example 31 (NorA), 5-Amino-1-cyclopropyl-6,8-difluoro-1,4-dihydro-7-(4′-hydroxy-3′,3′-dimethyl-piperidin-1-yl)-4-oxo-quinoline-3-carboxylic acid]",0.304
10,"Nc1c(F)c(N2CCC(N3CCCC3)CC2)c(F)c2c1c(=O)c(C(=O)O)cn2C1CC1 [Example 32 (NorA), 5-Amino-1-cyclopropyl-6,8-difluoro-1,4-dihydro-7-{4′-(1-pyrrolidinyl)piperidin-1-yl)-4-oxo-quinoline-3-carboxylic acid]",0.340
11,Nc1c(F)c(N2CCC(CNC3CCNCC3)CC2)c(F)c2c1c(=O)c(C(=O)O)cn2C1CC1 [Example 33 (NorA)],0.314
12,CN(c1c(F)c(N)c2c(=O)c(C(=O)O)cn(C3CC3)c2c1F)C1CC(C)(C)N(C)C(C)(C)C1 [Example 34 (NorA)],0.282
13,"CC1COCC(C)N1c1c(F)c(N)c2c(=O)c(C(=O)O)cn(C3CC3)c2c1F (stereo not shown) [Example 35 (NorA), 5-Amino-1-cyclopropyl-6,8-difluoro-1,4-dihydro-7-(3′,5′-dimethylmorpholin-1-yl)-4-oxo-quinoline-3-carboxylic acid]",0.314
14,"Nc1c(F)c(N2CCN(C3CC3)CC2)c(F)c2c1c(=O)c(C(=O)O)cn2C1CC1 [Example 36 (NorA), 5-Amino-1-cyclopropyl-6,8-difluoro-1,4-dihydro-7-(4′-cyclopropylpiperazin-1-yl)-4-oxo-quinoline-3-carboxylic acid]",0.314
15,"CC1CN(c2c(F)c(N)c3c(=O)c(C(=O)O)cn(C4CC4)c3c2F)CC(C)N1C(=O)C(C)(C)C (stereo not shown) [Example 37 (NorA), 5-Amino-1-cyclopropyl-6,8-difluoro-1,4-dihydro-7-(3′,5′-dimethyl-4-pivaloylpiperazin-1-yl)-4-oxo-quinoline-3-carboxylic acid]",0.314
16,"CCOC(=O)c1cn([C@@H](C)CCSc2ccccc2)c2c(F)c(N3CCC(O)CC3)c(F)cc2c1=O [Example 38 (NorA), Ethyl 6,8-Difluoro-7-(4-hydroxypiperidin-1-yl)-1-(1-phenylthio-3(S)-but-3-yl)-1,4-dihydro-4-oxo-quinoline-3-carboxylate]",0.100
17,"CN1CCN(c2cc3c(cc2F)c(=O)c(C(=O)O)cn3-c2ccccc2C(F)(F)F)CC1(C)C [Example 39 (NorA), 1-(2′-Trifluoromethylphenyl)-6-fluoro-1,4-dihydro- -7-(3′,3′,4′-trimethylpiperazin-1-yl)-4-oxo-quinoline-3-carboxylic acid]",0.282
18,"Nc1c(F)c(N2CCOCC2)c(F)c2c1c(=O)c(C(=O)O)cn2-c1ccccc1C(F)(F)F [Example 40 (NorA), 5-Amino-1-(2′-trifluoromethylphenyl)-6,8-difluoro-1,4-dihydro-7-(morpholin-1-yl)-4-oxo-quinoline-3-carboxylic acid]",0.314
19,"CC1COCC(C)N1c1c(F)c(N)c2c(=O)c(C(=O)O)cn(-c3ccccc3C(F)(F)F)c2c1F (stereo not shown) [Example 41 (NorA), 5-Amino-1-(2′-trifluoromethylphenyl)-6,8-difluoro-1,4-dihydro-7-(3′,5′-dimethylmorpholin-1-yl)-4-oxo-quinoline-3-carboxylic acid]",0.384
20,"CC1CN(c2c(F)c(N)c3c(=O)c(C(=O)O)cn(-c4ccccc4C(F)(F)F)c3c2F)CC(C)N1 (stereo not shown) [Example 42 (NorA), 5-Amino-1-(2′-trifluoromethylphenyl)-6,8-difluoro-1,4-dihydro-7-(3′,5′-dimethylpiperizine-1-yl)-4-oxo-quinoline-3-carboxylic acid]",0.314
21,"Nc1c(F)c(N2CCC(N)C2)c(F)c2c1c(=O)c(C(=O)O)cn2-c1ccc(C(F)(F)F)cc1 (stereo not shown) [Example 43 (NorA), 5-Amino-1-(4′-trifluoromethylphenyl)-6,8-difluoro-1,4-dihydro-7-(3′-aminopyrrolidin-1-yl)-4-oxo-quinoline-3-carboxylic acid]",0.564
22,CCNC1CCN(c2cc3c(cc2F)c(=O)c(C(=O)O)cn3-c2ccc(F)cc2)CC1 [Example 44 (NorA)],0.189
23,"CC1CC(C)CN(c2cc3c(cc2F)c(=O)c(C(=O)O)cn3-c2ccc(F)cc2F)C1 (stereo not shown) [Example 45 (NorA), 1-(2′,4′-Difluorophenyl)-6-fluoro-1,4-dihydro-7-(3′,5′-dimethylpiperidin-1-yl)-4-oxo-quinoline-3-carboxylic acid]",0.192
24,"CC1CC(O)CN1c1c(F)c(N)c2c(=O)c(C(=O)O)cn(-c3ccc(F)cc3F)c2c1F (stereo not shown) [Example 46 (NorA), 5-Amino-1-(2′,4′-difluorophenyl)-6,8-difluoro-1,4-dihydro-7-(3′-hydroxy-5′-methylpyrrolidin-1-yl)-4-oxo-quinoline-3-carboxylic acid]",0.314
25,"CC1(C)CN(c2c(F)c(N)c3c(=O)c(C(=O)O)cn(-c4ccc(F)cc4F)c3c2F)CCN1 [Example 47 (NorA), 5-Amino-1-(2′,4′-difluorophenyl)-6,8-difluoro-1,4-dihydro-7-(3′,3′-dimethylpiperazin-1-yl)-4-oxo-quinoline-3-carboxylic acid]",0.375
26,"CCOC(=O)NC1CCN(c2nc3c(cc2F)c(=O)c(C(=O)O)cn3C2CC2)C1 (stereo not shown) [Example 48 (NorA), 1-Cyclopropyl-6-fluoro-1,4-dihydro-7-{(3′-aminoethoxycarbonyl)pyrrolidin-3-yl}-4-oxo-naphthyridine-3-carboxylic acid]",(3-ethoxycarbonylamino)pyrrolidin-3-yl 0.314
27,"CCOC(=O)c1cn(-c2ccc(F)cc2F)c2nc(NC3C4CN(Cc5ccccc5)CC43)c(F)cc2c1=O (stereo not shown) [Example 51 (NorA), Ethyl-1-(2′,4′-difluorophenyl)-6-fluoro-1,4-dihydro-7-{[1∝,5∝,6∝]-3-N-benzyl-3-azabicyclo[3.1.01]hex-6-yl-amino}-4-oxo-1,8-naphthyridine-3-carboxylate]",0.185
28,"CCOC(=O)c1cn(-c2ccc(F)cc2F)c2nc(N3CCc4c(cnn4-c4ccccc4)C3)c(F)cc2c1=O [Example 52 (NorA), Ethyl 6-fluoro-7-[1-Phenyl-4,5,6,7-tetrahydropyrazolo[4.3-c]pyridin-1-yl]-1-(2,4-difluorophenyl)-4-oxo-1,4-dihydro-1,8-naphthyridine-3-carboxylate]",0.100
